Here are results for four compounds from EP3884941A1, “INFLAMMASOME INHIBITORS AND USE THEREOF” (CENTRO DE INVESTIGACION PRINCIPE FELIPE, priority 2020, dated 2021).

Each structure is given as a SMILES string. Entries after “also recorded” stand apart in the source; their conditions may differ. Peptide text beside a SMILES is read from it. * marks the point of attachment. Cbz = O=C(OCc1ccccc1)*; CH2F = FC*

The target in test [1] is T1, ASC-mediated PC1 activation (Homo sapiens, UniProt P29466).
T1 construct: His; made in house; host or cells: PC1: Sf9 insect cells (baculovirus)
T1 sequence (P29466 1-404): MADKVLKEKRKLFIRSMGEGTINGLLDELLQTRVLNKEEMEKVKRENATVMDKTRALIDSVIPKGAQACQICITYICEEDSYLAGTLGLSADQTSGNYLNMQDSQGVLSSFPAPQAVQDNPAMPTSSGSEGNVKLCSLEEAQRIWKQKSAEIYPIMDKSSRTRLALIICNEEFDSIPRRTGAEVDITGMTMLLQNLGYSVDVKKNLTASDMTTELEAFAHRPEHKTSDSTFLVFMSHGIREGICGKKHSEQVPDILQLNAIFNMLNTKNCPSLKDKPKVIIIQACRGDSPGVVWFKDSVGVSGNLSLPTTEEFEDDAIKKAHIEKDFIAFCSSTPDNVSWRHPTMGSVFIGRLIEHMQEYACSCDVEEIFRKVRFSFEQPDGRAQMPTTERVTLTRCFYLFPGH
Nature of the test: ASC-mediated PC1 reconstitution in vitro assay (primary screening). The test is classed as biochemical. Conditions: PC1 50 nM, ASC 300 nM, substrate Ac-WEHD-AFC; read-out: IC50. Here is the method:
Recombinant PC1 (50 nM) was preincubated with the indicated concentrations of compounds for 20 min at RT in Assay Buffer (20 mM HEPES pH 7.5, 10 mM KCI, 1.5 mM MgCl2, 1mM EDTA, 1 mM EGTA, 1 mM DTT). Then 300 nM of ASC were added and incubated for another 10 min period. Caspase-1 activation was measured using fluorogenic substrate Ac-WEHD-AFC (80 µM; Enzo Life Sciences) by continuously monitoring the release of the AFC (7-Amino-4-trifluoromethylcoumarin) product in a Wallac Victor workstation. The compounds were initially tested at 20 µM with 1% of DMSO. Data are reported as the percentage of inhibition compared with the absence of the compound.
The materials and methods employed in these experiments are now described.

For test [2], the system named is NLRP3 inflammasome. The test is described as follows: inflammasome activation cellular assay, LPS plus ATP, THP-1 cells. The test is classed as cell-based, human. Conditions: THP-1, LPS + ATP; pyroptosis / cell viability; MM01 1, 2.5 or 5 µM, VX-765 5 µM. How it is done: The MM01 compound was evaluated in the THP-1, or PMA-differentiated THP-1 cells (50 nM PMA for 24h) stimulated with lipopolysaccharide (LPS) plus adenosine triphosphate (ATP) to stimulate ASC-dependent inflammasomes NLRP3. Briefly, 1x10^6 cells were seeded in 6-well plates in 1 mL RPMI media that contained 1% FBS. Cells were either mock-treated or primed with compounds at the indicated concentrations for 30 min, followed by treatment with 100 ng/mL LPS (Sigma) and 2.5 mM ATP (Sigma) for 6 h at 37°C. In the case of nigericin stimulation, cells were primed with LPS for 3h, and then 10 µM nigericin (Sigma) was added for 30 min. Supernatants were harvested and clarified by centrifugation at 1500 rpm at RT, and a cytokine analysis was performed. Both IL-1β secretion and the release of IL-18were monitored by an ELISA assay (BD OptEIA™ Human IL-1β ELISA Kit and Human IL-18 Module Set eBioscience) following the manufacturer's instructions. Cell viability was analyzed in parallel by evaluating the release of lactate dehydrogenase (LDH) according to a commercial kit (CytoTox-ONE™ Homogeneous Membrane Integrity Assay; Promega). The release of LDH was calculated using the formula: the release of LDH (%) = 100x (Abs490 treated -Abs490 untreated cells)/ Abs490 untreated cells lysed with Triton 9% (maximum release of LDH).
The supernatants of the treated cells were precipitated by the chloroform-methanol method. Pellets were obtained by lysing cells in 25 mM of Tris-HCI pH 7.4, 1 mM EDTA, 1 mM EGTA and 1% SDS, plus protease and phosphatase inhibitors. The protein concentration was determined by the BCA protein assay. Samples were separated in a 14% SDS-PAGE gel, transferred to a nitrocellulose membrane and blocked with 5% skimmed milk for 1 h. Then the membrane was incubated overnight with primary antibodies: α-casp1 (1:1000; Cell Signaling 2225), α-IL-1β (1:1000; Acris R1130P), α-NLRP3 (1:1000; Cell Signaling 15101), α-tubulin (1:3000; Abcam ab6160) at 4°C. Membranes were washed and probed with the appropriate secondary antibody conjugated with peroxidase for enhanced chemiluminescence detection (Amersham Pharmacia Biotech).

Test [3] deals with ASC specks in THP1-ASC-GFP cells. Nature of the test: ASC speck assay. Type of test: cell-based, human. Conditions: THP-1 ASC GFP, LPS 100 ng/mL + nigericin 10 µM; MM01 10 µM, VX-765 5 µM. Here is the method: THP1-ASC-GFP cells were seeded at 1×10^6/ml the day prior to use in experiments on 35 mm glass-bottom culture dishes. The following day medium was replaced containing the indicated inhibitors or vehicle for 30 min. Cells were then primed with 100 ng/ml LPS for 3h and stimulated with 10 µM nigericin for 30 min. Samples were fixed in 4% paraformaldehyde (PFA) for 10 min at RT and washed several times. Coverslips were prepared in mounting medium plus DAPI and analyzed in a Leica SP8 confocal microscope.

Test [4] deals with NLRP3 inflammasome. The test is described as follows: human PBMCs cellular assay, LPS plus ATP. Conditions: human PBMCs, LPS and ATP, VX-765 5 µM. Type of test: cell-based. How it is done: Human peripheral blood mononuclear cells (PBMCs) are lymphocytes and monocytes. PBMCs were separated from the whole blood by a density gradient centrifugation method using Ficoll Histopaque. Purified PBMCs were plated in 24-well plates at 5000000 cells/well in free-serum RPMI medium. Cells were primed for 3 h with 10 ng/ml pure LPS followed by 4 h with compounds and 5 mM ATP. Supernatants were harvested and clarified by centrifugation at 1500 rpm at RT and cytokine and caspase-1 activation analysis was performed as previously described.

Test [5] has as its target T2, Recombinant caspase-1 (Homo sapiens, UniProt P29466).
T2 sequence (P29466 120-297 limits assumed): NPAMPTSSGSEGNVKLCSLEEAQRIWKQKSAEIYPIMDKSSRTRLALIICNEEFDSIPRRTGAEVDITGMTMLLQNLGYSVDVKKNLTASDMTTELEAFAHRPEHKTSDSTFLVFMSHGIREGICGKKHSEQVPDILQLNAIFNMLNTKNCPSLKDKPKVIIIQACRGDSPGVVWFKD
T2 sequence (P29466 317-404 limits assumed): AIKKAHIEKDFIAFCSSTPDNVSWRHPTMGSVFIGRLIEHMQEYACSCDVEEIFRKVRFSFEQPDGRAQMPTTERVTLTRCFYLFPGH
The test is described as follows: caspase-1 in vitro activation assay (secondary screening). The test is classed as biochemical. The conditions noted are these: preactivated recombinant caspase-1. Here is the method:
Recombinant caspase-1 (50 nM) was incubated with the indicated concentrations of compounds for 20 min at RT in Assay Buffer. Then fluorogenic substrate Ac-WEHD-AFC (80 µM) was added, and activity was monitored in a Wallac Victor workstation. Data are reported as the percentage of inhibition compared with the absence of the inhibitor.

The IC50 is the concentration needed to halve the response being measured. Turning to `CCCCN1C(=O)/C(=C2\SC(=S)N(Cc3ccco3)C2=O)c2cc(Br)ccc21`, in test [1], the IC50 came out at 300 ± 100 nM.

Take `COCCN1C(=O)/C(=C2/C(=O)Nc3ccc(Br)cc32)SC1=S`: the IC50 in test [1] was 1500 ± 800 nM. On to `CCO[C@@H]1OC(=O)C[C@@H]1NC(=O)[C@@H]1CCCN1C(=O)[C@@H](NC(=O)c1ccc(N)c(Cl)c1)C(C)(C)C` [VX-765, reference compound], for which the LDH release result in test [2] was “does not decrease; also recorded: no recovery of cell viability”. Moreover, in test [3], the ASC speck formation entry was “not inhibited”. In addition, the inflammatory cell death entry in test [4] (LDH release) was “did not protect”. The cytokine release result in test [4] is “able to inhibit”.

For `CC(NC(=O)C(NC(=O)OCc1ccccc1)C(C)C)C(=O)NC(CC(=O)O)C(=O)CF` (stereo not drawn) [zVAD, reference compound] (Cbz-Val-Ala-Asp-CH2F; configuration not given here), the caspase-1 activity result in test [5] is “inhibits”.
